Laboratory results published in patent US12077503B2, “Substituted cyclic amides and their use as herbicides” (FMC CORPORATION, priority 2015, dated 2024).

Experiments:
Format in all cases: in vivo
[1] = system: ivy-leaved morning glory (Ipomoea hederacea); experiment: Test G Post-Emergence Protocol
Procedure: (§1) Seeds of corn (Zea mays), giant foxtail (Setaria faberi), barnyardgrass (Echinochloa crus-galli), ivy-leaved morning glory (Ipomoea hederacea), redroot pigweed (Amaranthus retroflexus) and velvetleaf (Abutilon theophrasti) were sown in standard soil in pots. After cultivation for 8 days under controlled conditions in a glasshouse (at 24/16° C., day/night; 14 hours light; 65% humidity), the plants were sprayed with an aqueous spray solution derived from the formulation of the technical active ingredient in acetone/water (50:50) solution containing 0.5% Tween 20 (polyoxyethylene sorbitan monolaurate, CAS RN 9005-64-5) to give a final dose of 15.625, 62.5 or 250 g/ha of test compound.
(§2) The test plants were then grown on under controlled conditions in a glasshouse (at 24/16° C., day/night; 14 hours light; 65% humidity) and watered twice daily. After 13 days the test was evaluated (100=total damage to plant; 0=no damage to plant). A dash (-) means no test result.

[2] = system: velvetleaf (Abutilon theophrasti); experiment: Test G Post-Emergence Protocol
Procedure: as §1, §2

[3] = system: barnyardgrass (Echinochloa crus-galli); experiment: Test G Post-Emergence Protocol
Procedure: as §1, §2

corn (Zea mays) [4] = experiment: Test G Post-Emergence Protocol
Procedure: as §1, §2

[5] = system: redroot pigweed (Amaranthus retroflexus); experiment: Test G Post-Emergence Protocol
Procedure: as §1, §2

[6] = system: giant foxtail (Setaria faberi); experiment: Test G Post-Emergence Protocol
Procedure: as §1, §2

[7] = system: ivy-leaved morning glory (Ipomoea hederacea); experiment: Test G Pre-Emergence Protocol; settings: evaluated after 13 days
Procedure: as §1, with “one day” for “8 days”
as §2

[8] = system: velvetleaf (Abutilon theophrasti); experiment: Test G Pre-Emergence Protocol; settings: evaluated after 13 days
Procedure: as §1, with “one day” for “8 days”
as §2

[9] = system: barnyardgrass (Echinochloa crus-galli); experiment: Test G Pre-Emergence Protocol; settings: evaluated after 13 days
Procedure: as §1, with “one day” for “8 days”
as §2

corn (Zea mays) [10] = experiment: Test G Pre-Emergence Protocol; settings: evaluated after 13 days
Procedure: as §1, with “one day” for “8 days”
as §2

[11] = system: redroot pigweed (Amaranthus retroflexus); experiment: Test G Pre-Emergence Protocol; settings: evaluated after 13 days
Procedure: as §1, with “one day” for “8 days”
as §2

[12] = system: giant foxtail (Setaria faberi); experiment: Test G Pre-Emergence Protocol; settings: evaluated after 13 days
Procedure: as §1, with “one day” for “8 days”
as §2

[13] = 15.625 g ai/ha, evaluated after 13 days (100=total damage to plant; 0=no damage to plant)
[14] = 62.5 g ai/ha, evaluated after 13 days
[15] = 250 g ai/ha, evaluated after 13 days
[16] = 62.5 g ai/ha, 100=total damage to plant, 0=no damage to plant

CN1CC(c2ccc(C(F)(F)F)cc2)C(C(=O)Nc2cccc(F)c2[N+](=O)[O-])C1=O (racemic) [Compound 1546]
Morningglory, Ivy-leaved damage rating [1, 13]: 0 | Morningglory, Ivy-leaved damage rating (100=total damage to plant; 0=no damage to plant) [1, 14]: 20 | damage to plant, Morningglory, Ivy-leaved (100=total damage to plant; 0=no damage to plant) [1, 15]: 30 | Velvetleaf damage rating [2, 13]: 0 | Velvetleaf damage rating (100=total damage to plant; 0=no damage to plant) [2, 14]: 0 | damage to plant, Velvetleaf (100=total damage to plant; 0=no damage to plant) [2, 15]: 10 | Barnyardgrass damage rating [3, 13]: 40 | Barnyardgrass damage rating (100=total damage to plant; 0=no damage to plant) [3, 14]: 70 | damage to plant, Barnyardgrass (100=total damage to plant; 0=no damage to plant) [3, 15]: 80 | Corn damage rating (corn (Zea mays) [4]; [13]): 0 | Corn damage rating (100=total damage to plant; 0=no damage to plant) (corn (Zea mays) [4]; [14]): 20 | damage to plant, Corn (100=total damage to plant; 0=no damage to plant) (corn (Zea mays) [4]; [15]): 50 | Pigweed, Redroot damage rating [5, 13]: 30 | Pigweed, Redroot damage rating (100=total damage to plant; 0=no damage to plant) [5, 14]: 60 | damage to plant, Pigweed, Redroot (100=total damage to plant; 0=no damage to plant) [5, 15]: 60 | Foxtail, Giant damage rating [6, 13]: 60 | Foxtail, Giant damage rating (100=total damage to plant; 0=no damage to plant) [6, 14]: 80 | damage to plant, Foxtail, Giant (100=total damage to plant; 0=no damage to plant) [6, 15]: 80 | Morning-glory, Ivy-leaved damage rating (100=total damage to plant; 0=no damage to plant) ([7]; 15.625 g ai/ha): 0 | plant damage rating, Morningglory, Ivy-leaved [7, 16]: 20 | Morningglory, Ivy-leaved damage rating (100=total damage to plant; 0=no damage to plant) ([7]; 250 g ai/ha): 40 | Velvetleaf damage rating (100=total damage to plant; 0=no damage to plant) ([8]; 15.625 g ai/ha): 0 | plant damage rating, Velvetleaf [8, 16]: 0 | Velvetleaf damage rating (100=total damage to plant; 0=no damage to plant) ([8]; 250 g ai/ha): 0 | Barnyardgrass damage rating (100=total damage to plant; 0=no damage to plant) ([9]; 15.625 g ai/ha): 0 | plant damage rating, Barnyardgrass [9, 16]: 20 | Barnyardgrass damage rating (100=total damage to plant; 0=no damage to plant) ([9]; 250 g ai/ha): 80 | Corn damage rating (100=total damage to plant; 0=no damage to plant) (corn (Zea mays) [10]; 15.625 g ai/ha): 0 | plant damage rating, Corn (corn (Zea mays) [10]; [16]): 10 | Corn damage rating (100=total damage to plant; 0=no damage to plant) (corn (Zea mays) [10]; 250 g ai/ha): 40 | Pigweed, Redroot damage rating (100=total damage to plant; 0=no damage to plant) ([11]; 15.625 g ai/ha): 0 | plant damage rating, Pigweed, Redroot [11, 16]: 30 | Pigweed, Redroot damage rating (100=total damage to plant; 0=no damage to plant) ([11]; 250 g ai/ha): 70 | Foxtail, Giant damage rating (100=total damage to plant; 0=no damage to plant) ([12]; 15.625 g ai/ha): 60 | plant damage rating, Foxtail, Giant [12, 16]: 80 | Foxtail, Giant damage rating (100=total damage to plant; 0=no damage to plant) ([12]; 250 g ai/ha): 90
